Here are results for one compound from ChEMBL document CHEMBL6182924, “Discovery of a Novel and Potent MET Transcription Inhibitor Targeting Promoter G-Quadruplex for the Treatment of NSCLC” (J Med Chem, 2025).

Molecules are shown by their SMILES.

Series [1] is described as follows: Acute toxicity in Sprague-Dawley rat assessed as spleen damage at 500 to 2000 mg/kg, po measured every 2 days by H and E staining based analysis. Type of series: organism-based. As to conditions: in vivo, 48 h, dose 500-2000 mg/kg, time 2 day.
Series [2] deals with A549. The series can be described thus: Induction of cell cycle arrest in human A549 cells assessed as accumulation of cells at G2 phase at 2 uM measured for 24 hrs by PI/Rnase staining based flow cytometry (reference value: 13.4 %). Type of series: functional. For orientation: In flow cytometry, cells or beads pass a laser one at a time.
Series [3] concerns A549. The series can be described thus: Induction of apoptosis in human A549 cells assessed as necrotic cells at 1 uM incubated for 24 hrs by Annexin V-FITC/PI staining based flow cytometry analysis (reference value: 4.37 %). The class given is functional.
Series [4] has as its system NCI-H1975. The series can be described thus: Induction of apoptosis in human NCI-H1975 cells assessed as early apoptotic cells at 0.5 uM incubated for 24 hrs by Annexin V-FITC/PI staining based flow cytometry analysis (reference value: 0.35 %). Type of series: functional.
The test system of series [5] is A549. Nature of the series: Induction of apoptosis in human A549 cells assessed as late apoptotic cells at 0.5 uM incubated for 24 hrs by Annexin V-FITC/PI staining based flow cytometry analysis (reference value: 2.56 %). Type of series: functional.
The subject of series [6] is A549. Nature of the series: Induction of cell cycle arrest in human A549 cells assessed as accumulation of cells at G1 phase at 0.5 uM measured for 24 hrs by PI/Rnase staining based flow cytometry (reference value: 75.2 %). The class given is functional.
Series [7] relates to NCI-H1975. Nature of the series: Induction of apoptosis in human NCI-H1975 cells assessed as viable cells at 2 uM incubated for 24 hrs by Annexin V-FITC/PI staining based flow cytometry analysis (reference value: 90.1 %). The class given is functional. The following applies: read-out: Activity.
Series [8] is described as follows: Toxicity in BALB/c mouse xenografted with human A549 cells assessed as heart damage at 20 mg/kg, po administered once a day and measured after 20 days by H and E staining based analysis. The class given is organism-based. The following applies: in vivo, 480 h, time 20 day. A general note: A xenograft is tissue or cells of one species grown in another, often human tumour cells in immunodeficient mice.

Series [9] relates to A549. Nature of the series: Induction of apoptosis in human A549 cells assessed as viable cells at 0.5 uM incubated for 24 hrs by Annexin V-FITC/PI staining based flow cytometry analysis (reference value: 91.3%). Type of series: functional. The following applies: read-out: Activity.
Series [10] in a line: Toxicity in BALB/c mouse xenografted with human A549 cells assessed as kidney damage at 40 mg/kg, po administered once a day and measured after 20 days by H and E staining based analysis. Type of series: organism-based. The following applies: in vivo, 480 h, time 20 day.
Series [11] relates to NCI-H1975. Nature of the series: Induction of cell cycle arrest in human NCI-H1975 cells assessed as accumulation of cells at G2 phase at 0.5 uM measured for 24 hrs by PI/Rnase staining based flow cytometry (reference value: 14.8 %). Type of series: functional.
Series [12] can be described thus: Toxicity in BALB/c mouse xenografted with human A549 cells assessed as liver damage at 40 mg/kg, po administered once a day and measured after 20 days by H and E staining based analysis. Type of series: organism-based. The following applies: in vivo, 480 h, time 20 day.

As to `COc1cccc(-c2ccc(-c3nc4c5cccnc5c5ncccc5c4[nH]3)o2)c1`, the Activity entry in series [1] is “Non-toxic”; with A549 [2] it was 9.06%; in the series with A549 [3], 8.81%; in the series with NCI-H1975 [4], 2.01%; in the series with A549 [5], 7.9%; in the series with A549 [6], 75.4%. Besides, the Activity entry in [8] is “Non-toxic”; in series [10] it was “Non-toxic”; with NCI-H1975 [11], 13%; in [12], “Non-toxic”. For the same compound, the viability at 2 µM in the series with NCI-H1975 [7] was 79.7%. In the series with A549 [9], the viability at 0.5 µM worked out at 83.2%.
